Experimental data reported in patent EP2773641B1, “BIARYL ETHER SULFONAMIDES AND THEIR USE AS THERAPEUTIC AGENTS” (Xenon Pharmaceuticals Inc., priority 2011, dated 2013).
Like-named read-outs stand apart in the source and are kept apart here.

Key:
Nav1.7 = target: T1, Nav1.7 (Homo sapiens, UniProt Q15858); test: Patch voltage clamp electrophysiology assay, block of the inactivated state of Nav1.7; format: cell-based; conditions: affinity for the inactivated state, HEK-293 cells stably expressing human Nav1.7 with β1 subunit, held at -60 mV
T1 construct: permanently transfected with an expression vector containing the full-length cDNA coding for the desired human sodium channel α-subunit; expressed in transfected cells
Experimental: (§1) The following patch voltage clamp electrophysiology studies were performed on representative compounds of the invention using human embryonic kidney cells (HEK), permanently transfected with an expression vector containing the full-length cDNA coding for the desired human sodium channel α-subunit, grown in culture media containing 10% FBS, 1% PSG, and 0.5 mg/mL G418 at 37 °C with 5% CO2. […] Nav1.7 and Nav1.5 cDNAs (NM_002977 and AC137587; SCN5A, respectively) were stably expressed in HEK-293 cells. The β1 subunit was coexpressed only in the Nav1.7 cell line.
Sodium currents were measured using the patch clamp technique in the whole-cell configuration using either a PatchXpress automated voltage clamp or manually using an Axopatch 200B (Axon Instruments) or Model 2400 (A-M systems) amplifier. […] The pipette was filled with a solution comprised of: 5 mM NaCl, 10 mM CsCl, 120 mM CsF, 0.1 mM CaCl2, 2 mM MgCl2, 10 mM HEPES, 10 mM EGTA; and adjusted to pH 7.2 with CsOH. The external solution had the following composition: 140 mM NaCl, 5 mM KCI, 2 mM CaCl2, 1 mM MgCl2, 10 mM HEPES; and adjusted to pH 7.4 with NaOH. In some studies, the external sodium was reduced by equimolar replacement with choline. Osmolarity in the CsF internal and NaCl external solutions was adjusted to 300 mOsm/kg and 310 mOsm/kg with glucose, respectively. All recordings were performed at ambient temperature in a bath chamber with a volume of 150 µL. Control sodium currents were measured in 0.5% DMSO. Controls and representative compounds of the invention were applied to the recording chamber through a 4-pinch or 8-pinch valve bath perfusion system manufactured by ALA Scientific Instruments.
Series resistance compensation was applied (60-80%). […] All statistics in this study are given as mean ± SD.
The membrane potential was maintained at a voltage where inactivation of the channel is complete (which was -60 mV for both Nav1.7 and Nav1.5). The voltage is then stepped back to a very negative (Vhold = -150mV) voltage for 20 ms and then a test pulse is applied to quantify the compound block. […] The percent decrease in sodium current following wash-on of compound was taken as the percent block of sodium channels.
The Example numbers provided in Table 1 and Table 2 correspond to the Examples herein.

Nav1.5 = target: T2, Nav1.5 (Homo sapiens, UniProt Q14524); test: Patch voltage clamp electrophysiology assay, block of the inactivated state of Nav1.5; format: cell-based; conditions: IC50 class; affinity for the inactivated state; HEK-293 cells stably expressing human Nav1.5; held at -60 mV
T2 construct: permanently transfected with an expression vector containing the full-length cDNA coding for the desired human sodium channel α-subunit; expressed in transfected cells
Experimental: Patch voltage clamp electrophysiology allows for the direct measurement and quantification of block of voltage-gated sodium channels (Nav's), and allows the determination of the time- and voltage-dependence of block which has been interpreted as differential binding to the resting, open, and inactivated states of the sodium channel (Hille, B., Journal of General Physiology (1977), 69: 497-515).
as §1
Sodium currents were measured using the patch clamp technique in the whole-cell configuration using either a PatchXpress automated voltage clamp or manually using an Axopatch 200B (Axon Instruments) or Model 2400 (A-M systems) amplifier. The manual voltage clamp protocol was as follows: Borosilicate glass micropipettes were fire-polished to a tip diameter yielding a resistance of 2-4 Mohms in the working solutions. The pipette was filled with a solution comprised of: 5 mM NaCl, 10 mM CsCl, 120 mM CsF, 0.1 mM CaCl2, 2 mM MgCl2, 10 mM HEPES, 10 mM EGTA; and adjusted to pH 7.2 with CsOH. The external solution had the following composition: 140 mM NaCl, 5 mM KCI, 2 mM CaCl2, 1 mM MgCl2, 10 mM HEPES; and adjusted to pH 7.4 with NaOH. In some studies, the external sodium was reduced by equimolar replacement with choline. Osmolarity in the CsF internal and NaCl external solutions was adjusted to 300 mOsm/kg and 310 mOsm/kg with glucose, respectively. All recordings were performed at ambient temperature in a bath chamber with a volume of 150 µL. Control sodium currents were measured in 0.5% DMSO. Controls and representative compounds of the invention were applied to the recording chamber through a 4-pinch or 8-pinch valve bath perfusion system manufactured by ALA Scientific Instruments.
Currents were recorded at 40 kHz sampling frequency, filtered at […], and stored using a Digidata-1322A analogue/digital interface with the pClamp software (Axon Instruments). Series resistance compensation was applied (60-80%). […] All statistics in this study are given as mean ± SD.
The membrane potential was maintained at a voltage where inactivation of the channel is complete (which was -60 mV for both Nav1.7 and Nav1.5). The voltage is then stepped back to a very negative (Vhold = -150mV) voltage for 20 ms and then a test pulse is applied to quantify the compound block. The 20 ms brief repolarization was long enough for compound-free channels to completely recover from fast inactivation, but the compound-bound channels recovered more slowly such that negligible recovery could occur during this interval. The percent decrease in sodium current following wash-on of compound was taken as the percent block of sodium channels.
The Example numbers provided in Table 1 and Table 2 correspond to the Examples herein. TABLE 1: Inhibition of Nav1.7

T2 sequence (Q14524 whole entry): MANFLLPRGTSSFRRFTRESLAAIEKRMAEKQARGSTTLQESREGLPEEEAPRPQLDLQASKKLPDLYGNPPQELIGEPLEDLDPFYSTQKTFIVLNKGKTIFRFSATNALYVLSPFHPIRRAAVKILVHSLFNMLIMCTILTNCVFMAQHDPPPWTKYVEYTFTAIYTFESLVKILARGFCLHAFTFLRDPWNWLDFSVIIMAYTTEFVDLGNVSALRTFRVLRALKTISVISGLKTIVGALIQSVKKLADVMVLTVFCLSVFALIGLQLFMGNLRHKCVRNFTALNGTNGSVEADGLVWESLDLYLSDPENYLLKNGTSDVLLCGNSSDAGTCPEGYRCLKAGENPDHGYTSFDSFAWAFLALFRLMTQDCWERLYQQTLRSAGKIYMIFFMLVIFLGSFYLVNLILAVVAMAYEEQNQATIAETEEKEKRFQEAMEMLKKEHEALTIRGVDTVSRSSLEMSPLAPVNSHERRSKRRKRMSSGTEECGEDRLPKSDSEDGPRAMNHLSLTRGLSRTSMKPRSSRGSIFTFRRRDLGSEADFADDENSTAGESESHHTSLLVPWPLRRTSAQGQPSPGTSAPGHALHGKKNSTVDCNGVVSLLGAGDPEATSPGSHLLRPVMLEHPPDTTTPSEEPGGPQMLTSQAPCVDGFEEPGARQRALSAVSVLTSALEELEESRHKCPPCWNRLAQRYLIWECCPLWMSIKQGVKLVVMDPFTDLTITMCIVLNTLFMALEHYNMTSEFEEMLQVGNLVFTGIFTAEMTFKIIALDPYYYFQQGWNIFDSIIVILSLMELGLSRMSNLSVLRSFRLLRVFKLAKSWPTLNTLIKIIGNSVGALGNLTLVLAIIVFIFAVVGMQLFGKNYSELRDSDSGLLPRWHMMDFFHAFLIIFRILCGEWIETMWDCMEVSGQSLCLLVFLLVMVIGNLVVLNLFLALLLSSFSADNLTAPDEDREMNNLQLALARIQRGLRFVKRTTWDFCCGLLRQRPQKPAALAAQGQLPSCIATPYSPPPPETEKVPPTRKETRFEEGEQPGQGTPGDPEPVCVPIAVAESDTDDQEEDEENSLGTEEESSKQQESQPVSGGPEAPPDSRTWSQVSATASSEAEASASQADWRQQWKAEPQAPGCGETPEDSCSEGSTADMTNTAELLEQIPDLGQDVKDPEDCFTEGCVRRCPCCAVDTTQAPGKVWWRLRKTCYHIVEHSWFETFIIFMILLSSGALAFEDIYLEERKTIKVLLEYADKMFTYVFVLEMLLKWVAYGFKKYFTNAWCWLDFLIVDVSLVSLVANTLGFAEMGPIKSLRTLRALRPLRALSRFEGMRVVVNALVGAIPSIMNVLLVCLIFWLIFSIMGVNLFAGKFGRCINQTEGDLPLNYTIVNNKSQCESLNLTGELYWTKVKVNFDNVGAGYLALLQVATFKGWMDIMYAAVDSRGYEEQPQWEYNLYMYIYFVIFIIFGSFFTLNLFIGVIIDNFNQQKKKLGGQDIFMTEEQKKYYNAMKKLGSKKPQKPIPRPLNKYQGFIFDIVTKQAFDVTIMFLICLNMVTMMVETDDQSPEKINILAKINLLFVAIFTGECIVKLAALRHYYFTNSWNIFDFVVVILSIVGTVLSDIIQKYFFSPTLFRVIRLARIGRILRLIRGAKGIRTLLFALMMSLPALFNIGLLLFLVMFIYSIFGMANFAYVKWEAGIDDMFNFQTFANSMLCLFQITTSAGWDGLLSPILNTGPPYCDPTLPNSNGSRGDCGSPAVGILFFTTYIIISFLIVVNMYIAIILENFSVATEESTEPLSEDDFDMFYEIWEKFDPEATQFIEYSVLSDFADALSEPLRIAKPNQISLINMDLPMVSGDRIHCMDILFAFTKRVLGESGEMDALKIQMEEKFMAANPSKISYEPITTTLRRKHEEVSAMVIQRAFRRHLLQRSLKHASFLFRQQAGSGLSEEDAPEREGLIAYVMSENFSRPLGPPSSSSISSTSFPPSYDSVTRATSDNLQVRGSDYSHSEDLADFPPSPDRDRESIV
T1 sequence (Q15858 1-1977 isoform Q15858-3): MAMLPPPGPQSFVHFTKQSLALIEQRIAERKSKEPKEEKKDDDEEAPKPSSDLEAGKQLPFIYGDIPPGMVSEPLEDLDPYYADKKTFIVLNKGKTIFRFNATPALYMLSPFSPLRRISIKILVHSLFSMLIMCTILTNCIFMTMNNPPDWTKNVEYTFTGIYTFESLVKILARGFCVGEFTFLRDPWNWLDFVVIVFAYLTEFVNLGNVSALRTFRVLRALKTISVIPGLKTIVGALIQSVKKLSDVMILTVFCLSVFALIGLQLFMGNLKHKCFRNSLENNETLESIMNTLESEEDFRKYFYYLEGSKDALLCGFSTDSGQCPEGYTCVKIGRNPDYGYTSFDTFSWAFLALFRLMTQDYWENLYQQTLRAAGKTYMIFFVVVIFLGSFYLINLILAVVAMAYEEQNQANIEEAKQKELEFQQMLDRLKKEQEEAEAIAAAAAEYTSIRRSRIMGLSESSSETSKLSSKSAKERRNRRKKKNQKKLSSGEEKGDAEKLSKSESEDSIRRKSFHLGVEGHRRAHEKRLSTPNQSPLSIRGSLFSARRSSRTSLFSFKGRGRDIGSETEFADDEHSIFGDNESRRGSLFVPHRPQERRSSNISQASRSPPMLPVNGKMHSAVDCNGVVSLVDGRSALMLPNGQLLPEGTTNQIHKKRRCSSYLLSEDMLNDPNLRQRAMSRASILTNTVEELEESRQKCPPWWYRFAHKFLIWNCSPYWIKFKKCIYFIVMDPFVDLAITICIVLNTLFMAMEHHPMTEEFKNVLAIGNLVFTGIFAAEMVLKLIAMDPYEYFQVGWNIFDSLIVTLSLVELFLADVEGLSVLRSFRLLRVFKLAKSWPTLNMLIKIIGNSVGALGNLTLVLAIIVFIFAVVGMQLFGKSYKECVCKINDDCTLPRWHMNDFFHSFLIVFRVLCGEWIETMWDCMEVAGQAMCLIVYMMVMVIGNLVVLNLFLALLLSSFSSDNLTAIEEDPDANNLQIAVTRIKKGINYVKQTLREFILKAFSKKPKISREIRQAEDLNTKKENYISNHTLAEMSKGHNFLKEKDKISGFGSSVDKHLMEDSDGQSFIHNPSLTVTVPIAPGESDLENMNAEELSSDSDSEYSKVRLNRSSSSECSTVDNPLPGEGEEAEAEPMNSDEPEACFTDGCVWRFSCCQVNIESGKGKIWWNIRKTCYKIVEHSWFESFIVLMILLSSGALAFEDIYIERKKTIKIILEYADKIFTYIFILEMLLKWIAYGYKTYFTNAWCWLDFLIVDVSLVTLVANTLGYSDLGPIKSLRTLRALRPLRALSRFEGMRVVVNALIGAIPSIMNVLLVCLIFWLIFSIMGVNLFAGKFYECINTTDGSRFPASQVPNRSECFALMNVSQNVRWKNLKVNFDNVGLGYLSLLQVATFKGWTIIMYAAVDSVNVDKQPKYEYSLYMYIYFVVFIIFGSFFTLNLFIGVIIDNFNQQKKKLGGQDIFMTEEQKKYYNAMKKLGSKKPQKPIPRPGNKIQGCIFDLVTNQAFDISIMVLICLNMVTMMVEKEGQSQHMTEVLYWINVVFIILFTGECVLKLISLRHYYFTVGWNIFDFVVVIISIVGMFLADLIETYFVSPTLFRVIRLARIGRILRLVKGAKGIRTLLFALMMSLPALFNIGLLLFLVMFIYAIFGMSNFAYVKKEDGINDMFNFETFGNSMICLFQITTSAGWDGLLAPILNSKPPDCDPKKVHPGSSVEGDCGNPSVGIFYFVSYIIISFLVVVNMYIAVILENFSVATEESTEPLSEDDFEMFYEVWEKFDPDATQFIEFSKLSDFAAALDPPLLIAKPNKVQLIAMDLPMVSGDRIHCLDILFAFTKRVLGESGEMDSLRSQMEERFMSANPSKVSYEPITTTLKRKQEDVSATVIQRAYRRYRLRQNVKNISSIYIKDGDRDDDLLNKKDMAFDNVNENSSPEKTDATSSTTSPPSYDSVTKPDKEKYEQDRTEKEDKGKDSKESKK
T1 sequence (Q07699 19-218 partner): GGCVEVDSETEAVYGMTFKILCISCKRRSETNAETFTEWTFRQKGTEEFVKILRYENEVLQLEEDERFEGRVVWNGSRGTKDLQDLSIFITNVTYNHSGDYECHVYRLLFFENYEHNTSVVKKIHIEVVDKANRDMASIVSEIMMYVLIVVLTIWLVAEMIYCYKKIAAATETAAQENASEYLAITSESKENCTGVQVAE

IC50 (Nav1.7; read-out: Nav1.7 IC50) [nM] | IC50 (Nav1.7; IC50 class, read-out: Nav1.7) [nM] | Compound | IC50 (Nav1.5) [nM]
67.8 | 100 to 1000 | CN(c1ncns1)S(=O)(=O)c1cc(F)c(Oc2ccc(Cl)cc2-c2ccc3[nH]c(N)nc3c2)cc1F [Example 41, 4-(2-(2-amino-1H-benzo[d]imidazol-5-yl)-4-chlorophenoxy)-2,5-difluoro-N-methyl-N-(1,2,4-thiadiazol-5-yl)benzenesulfonamide] | 1000 to 10000
0.3 | – | Nc1nc2cc(-c3cc(Cl)ccc3Oc3cc(F)c(S(=O)(=O)Nc4ncns4)cc3F)ccc2[nH]1 [Example 38, 4-(2-(2-amino-1H-benzo[d]imidazol-5-yl)-4-chlorophenoxy)-2,5-difluoro-N-(1,2,4-thiadiazol-5-yl)benzenesulfonamide] | > 10000
0.6 | – | Nc1noc2ccc(-c3cc(Cl)ccc3Oc3cc(F)c(S(=O)(=O)Nc4ncns4)cc3F)cc12 [Example 44, 4-(2-(3-aminobenzo[d]isoxazol-5-yl)-4-chlorophenoxy)-2,5-difluoro-N-(1,2,4-thiadiazol-5-yl)benzenesulfonamide] | 1000 to 10000
0.2 | – | CN(C)c1noc2ccc(-c3cc(Cl)ccc3Oc3cc(F)c(S(=O)(=O)Nc4ncns4)cc3F)cc12 [Example 98, 4-(4-chloro-2-(3-(dimethylamino)benzo[d]isoxazol-5-yl)phenoxy)-2,5-difluoro-N-(1,2,4-thiadiazol-5-yl)benzenesulfonamide] | –
3.5 | – | Nc1cnc2ccc(-c3cc(Cl)ccc3Oc3cc(F)c(S(=O)(=O)Nc4ncns4)cc3F)cn12 [Example 42, 4-(2-(3-aminoimidazo[1,2-a]pyridin-6-yl)-4-chlorophenoxy)-2,5-difluoro-N-(1,2,4-thiadiazol-5-yl)benzenesulfonamide] | –

The next lines start with the compound.

Compound | IC50 (Nav1.7; read-out: Nav1.7 IC50) [nM] | IC50 (Nav1.7; IC50 class, read-out: Nav1.7) [nM] | IC50 (Nav1.5) [nM]
O=S(=O)(Nc1ncns1)c1cc(F)c(Oc2ccc(Cl)cc2-c2ccnc3nccn23)cc1F [Example 31, 4-(4-chloro-2-(imidazo[1,2-a]pyrimidin-5-yl)phenoxy)-2,5-difluoro-N-(1,2,4-thiadiazol-5-yl)benzenesulfonamide] | 8 | – | > 10000
O=S(=O)(Nc1ncns1)c1cc(F)c(Oc2ccc(Cl)cc2-c2cccc3nccn23)cc1F [Example 30, 4-(4-chloro-2-(imidazo[1,2-a]pyridin-5-yl)phenoxy)-2,5-difluoro-N-(1,2,4-thiadiazol-5-yl)benzenesulfonamide] | 13.4 | – | > 10000
Nc1noc2ccc(-c3cc(Cl)ccc3Oc3cc(F)c(S(=O)(=O)Nc4ncccn4)cc3F)cc12 [Example 63, 4-(2-(3-aminobenzo[d]isoxazol-5-yl)-4-chlorophenoxy)-2,5-difluoro-N-(pyrimidin-2-yl)benzenesulfonamide] | 4.4 | – | –
